Measurements reported in ChEMBL document CHEMBL1201861, “Genomics of Drug Sensitity in Cancer screening data, Wellcome Trust Sanger Institute”.

How the values were obtained:
Assay in all cases: cells
LNCaP-Clone-FGC = assay type: functional, cell-based, Homo sapiens; settings: Homo sapiens, LNCaP-Clone-FGC
LS-411N = assay type: functional, cell-based, Homo sapiens; settings: Homo sapiens, LS-411N
EW-11 = assay type: functional, cell-based, Homo sapiens; settings: Homo sapiens, EW-11;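 also: growth inhibition of human EW-11 cells, measured with a cell viability assay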
Description: SANGER: Inhibition of human EW-11 cell growth in a cell viability assay.

NCI-H1648 = assay type: functional, cell-based, Homo sapiens; settings: Homo sapiens, NCI-H1648;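 also: cell viability assay measuring inhibition of NCI-H1648 cell growth, from the Sanger screening data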
Description: SANGER: Inhibition of human NCI-H1648 cell growth in a cell viability assay.

MZ7-mel = assay type: functional, cell-based, Homo sapiens; settings: Homo sapiens, MZ7-mel;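 also: growth inhibition of human MZ7-mel cells, measured by a cell viability assay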
TE-9 = assay type: functional, cell-based, Homo sapiens; settings: Homo sapiens, TE-9;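 also: cell growth inhibition, measured with a cell viability readout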
Description: SANGER: Inhibition of human TE-9 cell growth in a cell viability assay.

COLO-824 = assay type: functional, cell-based, Homo sapiens; settings: Homo sapiens, COLO-824
Description: SANGER: Inhibition of human COLO-824 cell growth in a cell viability assay.

BB30-HNC = assay type: functional, cell-based, Homo sapiens; settings: Homo sapiens, BB30-HNC;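 also: growth inhibition of the cultured cell line, read out by a cell viability assay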
Description: SANGER: Inhibition of human BB30-HNC cell growth in a cell viability assay.

OCI-AML2 = assay type: functional, cell-based; settings: Homo sapiens;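 also: growth inhibition of OCI-AML2 cells, read out with a cell viability assay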
Description: SANGER: Inhibition of human OCI-AML2 cell growth in a cell viability assay.

L-428 = assay type: functional, cell-based; settings: Homo sapiens
Description: SANGER: Inhibition of human L-428 cell growth in a cell viability assay.

KY821 = assay type: functional, cell-based; settings: Homo sapiens;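 also: growth inhibition of human KY821 cells, read out by a cell viability assay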
HH = assay type: functional, cell-based; settings: Homo sapiens
Description: SANGER: Inhibition of human HH cell growth in a cell viability assay.

K562 = assay type: functional, cell-based; settings: Homo sapiens
Description: SANGER: Inhibition of human K-562 cell growth in a cell viability assay.

NCI-H1770 = assay type: functional, cell-based; settings: Homo sapiens;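 also: growth inhibition of NCI-H1770 cells determined with a viability readout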
Description: SANGER: Inhibition of human NCI-H1770 cell growth in a cell viability assay.

DJM-1 = assay type: functional, cell-based, Homo sapiens; settings: Homo sapiens, DJM-1;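 also: growth inhibition of human DJM-1 cells, read out by a cell viability assay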
Description: SANGER: Inhibition of human DJM-1 cell growth in a cell viability assay.

MHH-PREB-1 = assay type: functional, cell-based; settings: Homo sapiens;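 also: cell viability assay measuring inhibition of proliferation of human MHH-PREB-1 cells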
Description: SANGER: Inhibition of human MHH-PREB-1 cell growth in a cell viability assay.

PSN1 = assay type: functional, cell-based, Homo sapiens; settings: Homo sapiens, PSN1;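 also: suppression of growth of human PSN1 cells, read out by a cell viability assay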
Description: SANGER: Inhibition of human PSN1 cell growth in a cell viability assay.

NB7 = assay type: functional, cell-based; settings: Homo sapiens;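 also: growth inhibition of NB7 cells, read out with a cell viability assay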
Description: SANGER: Inhibition of human NB7 cell growth in a cell viability assay.

NOMO-1 = assay type: functional, cell-based; settings: Homo sapiens;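 also: growth inhibition of human NOMO-1 cells measured by a cell viability assay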
ES5 = assay type: functional, cell-based, Homo sapiens; settings: Homo sapiens, ES5;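 also: growth inhibition of human ES5 cells, read out by a cell viability assay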
DB = assay type: functional, cell-based; settings: Homo sapiens
Description: SANGER: Inhibition of human DB cell growth in a cell viability assay.

HDLM-2 = assay type: functional, cell-based; settings: Homo sapiens;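 also: cell viability assay measuring suppression of HDLM-2 proliferation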
Description: SANGER: Inhibition of human HDLM-2 cell growth in a cell viability assay.

TK-10 = assay type: functional, cell-based, Homo sapiens; settings: Homo sapiens, TK-10;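 also: growth inhibition of TK-10 cells, read out in a cell viability assay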
Description: SANGER: Inhibition of human TK10 cell growth in a cell viability assay.

HCC1187 = assay type: functional, cell-based, Homo sapiens; settings: Homo sapiens, HCC1187;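 also: growth inhibition of HCC1187 cells, read out with a cell viability assay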
Description: SANGER: Inhibition of human HCC1187 cell growth in a cell viability assay.

TE-5 = assay type: functional, cell-based, Homo sapiens; settings: Homo sapiens, TE-5;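 also: inhibition of cell growth, read out by a cell viability assay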
Description: SANGER: Inhibition of human TE-5 cell growth in a cell viability assay.

NB17 = assay type: functional, cell-based; settings: Homo sapiens;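 also: growth inhibition of NB17 cells, read out with a cell viability assay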
Description: SANGER: Inhibition of human NB17 cell growth in a cell viability assay.

JVM-3 = assay type: functional, cell-based; settings: Homo sapiens;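 also: growth inhibition of human JVM-3 cells, read out with a cell viability assay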
Description: SANGER: Inhibition of human JVM-3 cell growth in a cell viability assay.

UACC-257 = assay type: functional, cell-based, Homo sapiens; settings: Homo sapiens, UACC-257
Description: SANGER: Inhibition of human UACC-257 cell growth in a cell viability assay.

ATN-1 = assay type: functional, cell-based; settings: Homo sapiens;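 also: growth inhibition of human ATN-1 cells, read out with a cell viability assay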
Description: SANGER: Inhibition of human ATN-1 cell growth in a cell viability assay.

COLO-800 = assay type: functional, cell-based, Homo sapiens; settings: Homo sapiens, COLO-800;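 also: growth inhibition of COLO-800 cells, read out with a cell viability assay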
Description: SANGER: Inhibition of human COLO-800 cell growth in a cell viability assay.

LS-513 = assay type: functional, cell-based, Homo sapiens; settings: Homo sapiens, LS-513
Description: SANGER: Inhibition of human LS-513 cell growth in a cell viability assay.

SMILES | IC50 (LNCaP-Clone-FGC) | IC50 (LS-411N) | IC50 (EW-11) | IC50 (NCI-H1648) | IC50 (MZ7-mel) | IC50 (TE-9) | IC50 (COLO-824) | IC50 (BB30-HNC) | IC50 (OCI-AML2) | IC50 (L-428) | IC50 (KY821) | IC50 (HH) | IC50 (K562) | IC50 (NCI-H1770) | IC50 (DJM-1) | IC50 (MHH-PREB-1) | IC50 (PSN1) | IC50 (NB7) | IC50 (NOMO-1) | IC50 (ES5) | further results
CN1CCN(CCOc2cc(OC3CCOCC3)c3c(Nc4c(Cl)ccc5c4OCO5)ncnc3c2)CC1 [SARACATINIB] | > 2000 nM | > 2000 nM | > 2000 nM | 281 nM | > 2000 nM | > 2000 nM | > 2000 nM | 862 nM | > 2000 nM | > 2000 nM | > 2000 nM | > 2000 nM | 450 nM | > 2000 nM | > 2000 nM | > 2000 nM | > 2000 nM | > 2000 nM | > 2000 nM | > 2000 nM | IC50 (DB): > 2000 nM; IC50 (HDLM-2): > 2000 nM; IC50 (TK-10): 907 nM; IC50 (HCC1187): > 2000 nM; IC50 (TE-5): > 2000 nM; IC50 (NB17): > 2000 nM; IC50 (JVM-3): > 2000 nM; IC50 (UACC-257): > 2000 nM; IC50 (ATN-1): > 2000 nM; IC50 (COLO-800): > 2000 nM; IC50 (LS-513): > 2000 nM
CO[C@H]1C[C@@H]2CC[C@@H](C)[C@@](O)(O2)C(=O)C(=O)N2CCCC[C@H]2C(=O)O[C@H]([C@H](C)C[C@@H]2CC[C@@H](O)[C@H](OC)C2)CC(=O)[C@H](C)/C=C(\C)[C@@H](O)[C@@H](OC)C(=O)[C@H](C)C[C@H](C)/C=C/C=C/C=C/1C [SIROLIMUS] | > 100 nM | 77.6 nM | > 100 nM | > 100 nM | > 100 nM | > 100 nM | > 100 nM | > 100 nM | > 100 nM | > 100 nM | > 100 nM | 11.4 nM | > 100 nM | > 100 nM | > 100 nM | 32.4 nM | > 100 nM | > 100 nM | > 100 nM | > 100 nM | IC50 (DB): > 100 nM; IC50 (HDLM-2): > 100 nM; IC50 (TK-10): > 100 nM; IC50 (HCC1187): > 100 nM; IC50 (TE-5): > 100 nM; IC50 (NB17): > 100 nM; IC50 (JVM-3): > 100 nM; IC50 (UACC-257): > 100 nM; IC50 (ATN-1): > 100 nM; IC50 (COLO-800): > 100 nM; IC50 (LS-513): > 100 nM
CCC(=O)N1CCN(c2ccc(-n3c(=O)ccc4cnc5ccc(-c6cnc7ccccc7c6)cc5c43)cc2C(F)(F)F)CC1 [TORIN1] | > 1200 nM | 14.4 nM | > 1200 nM | 36.2 nM | 26.1 nM | 290 nM | 878 nM | 57.3 nM | 28.7 nM | 103 nM | 220 nM | 135 nM | 91.2 nM | > 1200 nM | > 1200 nM | 18.2 nM | 14.1 nM | > 1200 nM | 400 nM | > 1200 nM | IC50 (DB): 501 nM; IC50 (HDLM-2): > 1200 nM; IC50 (TK-10): 40.2 nM; IC50 (HCC1187): 468 nM; IC50 (TE-5): 38.5 nM; IC50 (NB17): 117 nM; IC50 (JVM-3): > 1200 nM; IC50 (UACC-257): 98.3 nM; IC50 (ATN-1): 27.9 nM; IC50 (COLO-800): > 1200 nM; IC50 (LS-513): 391 nM
Cc1cc(Nc2cc(N3CCN(C)CC3)nc(Sc3ccc(NC(=O)C4CC4)cc3)n2)n[nH]1 [TOZASERTIB] | > 2000 nM | 578 nM | > 2000 nM | > 2000 nM | > 2000 nM | > 2000 nM | > 2000 nM | 226 nM | 644 nM | > 2000 nM | > 2000 nM | > 2000 nM | 435 nM | > 2000 nM | > 2000 nM | > 2000 nM | 220 nM | > 2000 nM | > 2000 nM | > 2000 nM | IC50 (DB): > 2000 nM; IC50 (HDLM-2): > 2000 nM; IC50 (TK-10): > 2000 nM; IC50 (HCC1187): 1010 nM; IC50 (TE-5): > 2000 nM; IC50 (NB17): > 2000 nM; IC50 (JVM-3): > 2000 nM; IC50 (UACC-257): > 2000 nM; IC50 (ATN-1): > 2000 nM; IC50 (COLO-800): > 2000 nM; IC50 (LS-513): > 2000 nM
